Data taken from ChEMBL document CHEMBL4043200, “Synthesis and biological evaluation of 8-aryl-2-morpholino-7-O-substituted benzo[e][1,3]oxazin-4-ones against DNA-PK, PI3K, PDE3A enzymes and platelet aggregation” (Bioorg Med Chem, 2017).

Key:
[1] = biological target: DNA-dependent protein kinase catalytic subunit (Homo sapiens, UniProt P78527); experiment: Inhibition of human DNA-PK catalytic subunit at 10 uM using DNA and [EPPLSQEAFADLWKK] peptide substrate by HTRF assay
[2] = biological target: cGMP-inhibited 3',5'-cyclic phosphodiesterase 3A (Homo sapiens, UniProt Q14432); experiment: Inhibition of human PDE3A at 10 uM by HTRF assay
[3] = biological target: Phosphatidylinositol 4,5-bisphosphate 3-kinase catalytic subunit alpha isoform (Homo sapiens) (UniProt P42336); experiment: Inhibition of wild type PI3K-alpha (unknown origin) assessed as decrease in ATP consumption at 10 uM using phosphotidylinositol bisphosphate and ATP measured after 60 mins by Kinase-Glo reagent based luminescence assay
[4] = biological target: Phosphatidylinositol 4,5-bisphosphate 3-kinase catalytic subunit beta isoform (Homo sapiens) (UniProt P42338); experiment: Inhibition of wild type PI3K-beta (unknown origin) assessed as decrease in ATP consumption at 10 uM using phosphotidylinositol bisphosphate and ATP measured after 60 mins by Kinase-Glo reagent based luminescence assay
[5] = biological target: Phosphatidylinositol 4,5-bisphosphate 3-kinase catalytic subunit gamma isoform (Homo sapiens) (UniProt P48736); experiment: Inhibition of wild type PI3K-gamma (unknown origin) assessed as decrease in ATP consumption at 10 uM using phosphotidylinositol bisphosphate and ATP measured after 60 mins by Kinase-Glo reagent based luminescence assay
[6] = biological target: T1, Phosphatidylinositol 4,5-bisphosphate 3-kinase catalytic subunit delta isoform (Homo sapiens) (UniProt O00329); experiment: Inhibition of wild type PI3K-delta (unknown origin) assessed as decrease in ATP consumption at 10 uM using phosphotidylinositol bisphosphate and ATP measured after 60 mins by Kinase-Glo reagent based luminescence assay
T1 sequence (whole entry): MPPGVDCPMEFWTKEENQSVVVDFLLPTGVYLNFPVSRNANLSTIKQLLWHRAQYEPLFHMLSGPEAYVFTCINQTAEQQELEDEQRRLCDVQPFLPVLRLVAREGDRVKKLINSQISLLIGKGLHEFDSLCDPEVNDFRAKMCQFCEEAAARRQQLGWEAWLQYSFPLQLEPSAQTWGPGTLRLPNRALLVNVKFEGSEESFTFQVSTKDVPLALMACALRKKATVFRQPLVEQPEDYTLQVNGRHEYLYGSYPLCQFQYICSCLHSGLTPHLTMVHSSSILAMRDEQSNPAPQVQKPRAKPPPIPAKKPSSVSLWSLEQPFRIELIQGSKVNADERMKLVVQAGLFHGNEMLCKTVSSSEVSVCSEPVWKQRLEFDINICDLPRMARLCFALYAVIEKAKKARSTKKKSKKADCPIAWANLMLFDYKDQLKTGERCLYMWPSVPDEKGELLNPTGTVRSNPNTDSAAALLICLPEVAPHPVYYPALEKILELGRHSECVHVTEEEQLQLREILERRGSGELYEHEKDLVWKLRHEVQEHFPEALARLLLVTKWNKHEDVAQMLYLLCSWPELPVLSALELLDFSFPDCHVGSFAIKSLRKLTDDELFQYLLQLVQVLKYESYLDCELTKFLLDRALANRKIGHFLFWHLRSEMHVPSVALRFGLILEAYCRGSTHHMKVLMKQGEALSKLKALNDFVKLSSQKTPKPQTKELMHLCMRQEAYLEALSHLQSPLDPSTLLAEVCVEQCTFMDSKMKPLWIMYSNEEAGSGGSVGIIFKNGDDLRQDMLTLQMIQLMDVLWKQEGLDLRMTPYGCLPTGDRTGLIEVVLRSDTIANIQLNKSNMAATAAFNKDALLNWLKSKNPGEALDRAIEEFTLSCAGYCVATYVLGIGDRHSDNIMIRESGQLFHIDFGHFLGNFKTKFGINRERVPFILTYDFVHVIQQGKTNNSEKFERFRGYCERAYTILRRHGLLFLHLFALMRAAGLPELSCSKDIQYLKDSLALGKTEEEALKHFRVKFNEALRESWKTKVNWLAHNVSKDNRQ

[7] = biological target: T2, Phosphatidylinositol 4,5-bisphosphate 3-kinase catalytic subunit delta isoform (Homo sapiens, UniProt O00329); experiment: Inhibition of wild type PI3K-delta (unknown origin) assessed as decrease in ATP consumption using phosphotidylinositol bisphosphate and ATP measured after 60 mins by Kinase-Glo reagent based luminescence assay
T2 sequence (O00329 whole entry): T1 sequence (whole entry)

Chain of Phosphatidylinositol 4,5-bisphosphate 3-kinase catalytic subunit gamma isoform (Homo sapiens) (P48736 whole entry, looked up, canonical isoform): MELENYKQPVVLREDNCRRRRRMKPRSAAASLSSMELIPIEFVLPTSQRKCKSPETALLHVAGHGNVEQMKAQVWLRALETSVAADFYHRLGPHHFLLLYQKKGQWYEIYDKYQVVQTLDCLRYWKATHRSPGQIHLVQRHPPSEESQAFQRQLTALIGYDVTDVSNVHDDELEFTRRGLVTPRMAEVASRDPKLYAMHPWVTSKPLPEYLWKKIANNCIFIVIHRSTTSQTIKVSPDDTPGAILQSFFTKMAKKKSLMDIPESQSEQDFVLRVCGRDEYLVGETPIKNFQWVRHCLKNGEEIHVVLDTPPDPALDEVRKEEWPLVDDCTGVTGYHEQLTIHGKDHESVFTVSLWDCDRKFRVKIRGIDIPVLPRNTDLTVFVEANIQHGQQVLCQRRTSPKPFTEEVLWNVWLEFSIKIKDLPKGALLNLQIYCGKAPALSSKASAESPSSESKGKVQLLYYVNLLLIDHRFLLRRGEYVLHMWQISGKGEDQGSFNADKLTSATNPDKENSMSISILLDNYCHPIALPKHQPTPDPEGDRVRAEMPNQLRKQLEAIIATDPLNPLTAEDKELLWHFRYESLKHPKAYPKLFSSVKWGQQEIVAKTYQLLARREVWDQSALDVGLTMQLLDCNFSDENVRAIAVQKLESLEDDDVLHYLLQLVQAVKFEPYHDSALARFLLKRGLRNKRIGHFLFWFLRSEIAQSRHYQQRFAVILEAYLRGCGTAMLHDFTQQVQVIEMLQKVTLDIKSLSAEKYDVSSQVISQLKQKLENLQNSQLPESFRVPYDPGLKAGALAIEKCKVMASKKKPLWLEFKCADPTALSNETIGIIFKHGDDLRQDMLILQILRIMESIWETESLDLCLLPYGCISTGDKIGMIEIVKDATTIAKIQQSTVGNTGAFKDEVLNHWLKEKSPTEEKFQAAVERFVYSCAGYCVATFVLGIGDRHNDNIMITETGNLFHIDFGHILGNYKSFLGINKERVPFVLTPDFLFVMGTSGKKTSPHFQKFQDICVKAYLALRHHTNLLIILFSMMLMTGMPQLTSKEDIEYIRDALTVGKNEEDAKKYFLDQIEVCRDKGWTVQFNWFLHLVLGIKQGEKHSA
Chain of cGMP-inhibited 3',5'-cyclic phosphodiesterase 3A (Q14432 whole entry, canonical isoform): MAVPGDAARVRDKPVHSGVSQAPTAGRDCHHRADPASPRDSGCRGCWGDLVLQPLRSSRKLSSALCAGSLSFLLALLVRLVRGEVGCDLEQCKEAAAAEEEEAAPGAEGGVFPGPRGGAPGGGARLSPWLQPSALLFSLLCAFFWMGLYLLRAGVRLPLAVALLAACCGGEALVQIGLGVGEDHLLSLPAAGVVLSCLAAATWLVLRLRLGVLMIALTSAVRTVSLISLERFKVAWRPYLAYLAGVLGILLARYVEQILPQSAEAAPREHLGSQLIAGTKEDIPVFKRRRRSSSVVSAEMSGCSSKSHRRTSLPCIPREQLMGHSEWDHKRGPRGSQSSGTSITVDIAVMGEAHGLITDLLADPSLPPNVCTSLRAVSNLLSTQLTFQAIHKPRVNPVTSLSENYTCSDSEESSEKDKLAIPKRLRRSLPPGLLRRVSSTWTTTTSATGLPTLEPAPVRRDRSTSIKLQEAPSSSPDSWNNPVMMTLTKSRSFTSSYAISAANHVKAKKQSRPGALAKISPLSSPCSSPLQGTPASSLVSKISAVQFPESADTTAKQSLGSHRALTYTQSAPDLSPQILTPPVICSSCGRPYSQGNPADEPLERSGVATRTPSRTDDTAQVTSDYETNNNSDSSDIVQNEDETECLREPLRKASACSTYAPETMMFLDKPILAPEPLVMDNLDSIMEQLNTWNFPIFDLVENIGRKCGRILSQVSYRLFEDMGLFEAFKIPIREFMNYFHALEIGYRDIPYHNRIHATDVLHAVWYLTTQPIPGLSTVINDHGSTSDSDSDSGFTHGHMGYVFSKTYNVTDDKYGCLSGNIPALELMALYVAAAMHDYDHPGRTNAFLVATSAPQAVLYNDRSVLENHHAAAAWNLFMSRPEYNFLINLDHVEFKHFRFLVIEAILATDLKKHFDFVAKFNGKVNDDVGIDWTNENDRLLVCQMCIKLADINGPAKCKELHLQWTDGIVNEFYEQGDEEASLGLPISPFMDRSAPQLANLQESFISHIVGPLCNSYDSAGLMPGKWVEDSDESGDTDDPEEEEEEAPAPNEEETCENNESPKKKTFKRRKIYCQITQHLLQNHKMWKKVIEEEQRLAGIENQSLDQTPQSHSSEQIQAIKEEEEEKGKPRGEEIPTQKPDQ
Chain of Phosphatidylinositol 4,5-bisphosphate 3-kinase catalytic subunit alpha isoform (Homo sapiens) (P42336 whole entry, canonical isoform): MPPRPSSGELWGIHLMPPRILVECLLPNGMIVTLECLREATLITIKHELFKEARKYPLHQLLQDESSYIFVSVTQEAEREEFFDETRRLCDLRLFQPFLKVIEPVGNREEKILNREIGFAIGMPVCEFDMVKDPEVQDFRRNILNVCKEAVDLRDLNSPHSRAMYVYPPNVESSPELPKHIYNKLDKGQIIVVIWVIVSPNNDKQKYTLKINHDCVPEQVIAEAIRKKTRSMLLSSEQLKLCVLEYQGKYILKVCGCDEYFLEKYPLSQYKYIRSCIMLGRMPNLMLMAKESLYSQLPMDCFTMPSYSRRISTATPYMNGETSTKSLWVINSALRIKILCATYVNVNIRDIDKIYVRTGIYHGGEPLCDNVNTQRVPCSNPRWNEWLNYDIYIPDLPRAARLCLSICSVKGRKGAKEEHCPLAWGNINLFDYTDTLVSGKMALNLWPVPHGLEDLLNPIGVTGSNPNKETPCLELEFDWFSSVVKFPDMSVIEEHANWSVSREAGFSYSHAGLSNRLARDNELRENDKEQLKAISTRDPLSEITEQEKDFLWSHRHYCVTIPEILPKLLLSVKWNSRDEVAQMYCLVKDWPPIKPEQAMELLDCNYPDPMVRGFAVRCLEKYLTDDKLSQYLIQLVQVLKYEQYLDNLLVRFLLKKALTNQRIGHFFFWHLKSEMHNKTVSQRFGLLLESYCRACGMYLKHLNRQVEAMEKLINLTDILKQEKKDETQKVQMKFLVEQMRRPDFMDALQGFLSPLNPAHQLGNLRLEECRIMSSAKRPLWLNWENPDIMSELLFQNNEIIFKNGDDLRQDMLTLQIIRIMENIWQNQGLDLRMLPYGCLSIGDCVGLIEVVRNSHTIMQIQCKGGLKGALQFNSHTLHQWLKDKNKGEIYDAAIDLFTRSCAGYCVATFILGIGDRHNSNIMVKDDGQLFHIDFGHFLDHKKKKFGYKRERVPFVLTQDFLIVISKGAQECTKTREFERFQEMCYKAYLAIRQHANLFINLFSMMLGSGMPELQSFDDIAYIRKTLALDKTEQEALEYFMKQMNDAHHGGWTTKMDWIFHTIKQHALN
Chain of Phosphatidylinositol 4,5-bisphosphate 3-kinase catalytic subunit beta isoform (Homo sapiens) (P42338 whole entry, looked up, canonical isoform): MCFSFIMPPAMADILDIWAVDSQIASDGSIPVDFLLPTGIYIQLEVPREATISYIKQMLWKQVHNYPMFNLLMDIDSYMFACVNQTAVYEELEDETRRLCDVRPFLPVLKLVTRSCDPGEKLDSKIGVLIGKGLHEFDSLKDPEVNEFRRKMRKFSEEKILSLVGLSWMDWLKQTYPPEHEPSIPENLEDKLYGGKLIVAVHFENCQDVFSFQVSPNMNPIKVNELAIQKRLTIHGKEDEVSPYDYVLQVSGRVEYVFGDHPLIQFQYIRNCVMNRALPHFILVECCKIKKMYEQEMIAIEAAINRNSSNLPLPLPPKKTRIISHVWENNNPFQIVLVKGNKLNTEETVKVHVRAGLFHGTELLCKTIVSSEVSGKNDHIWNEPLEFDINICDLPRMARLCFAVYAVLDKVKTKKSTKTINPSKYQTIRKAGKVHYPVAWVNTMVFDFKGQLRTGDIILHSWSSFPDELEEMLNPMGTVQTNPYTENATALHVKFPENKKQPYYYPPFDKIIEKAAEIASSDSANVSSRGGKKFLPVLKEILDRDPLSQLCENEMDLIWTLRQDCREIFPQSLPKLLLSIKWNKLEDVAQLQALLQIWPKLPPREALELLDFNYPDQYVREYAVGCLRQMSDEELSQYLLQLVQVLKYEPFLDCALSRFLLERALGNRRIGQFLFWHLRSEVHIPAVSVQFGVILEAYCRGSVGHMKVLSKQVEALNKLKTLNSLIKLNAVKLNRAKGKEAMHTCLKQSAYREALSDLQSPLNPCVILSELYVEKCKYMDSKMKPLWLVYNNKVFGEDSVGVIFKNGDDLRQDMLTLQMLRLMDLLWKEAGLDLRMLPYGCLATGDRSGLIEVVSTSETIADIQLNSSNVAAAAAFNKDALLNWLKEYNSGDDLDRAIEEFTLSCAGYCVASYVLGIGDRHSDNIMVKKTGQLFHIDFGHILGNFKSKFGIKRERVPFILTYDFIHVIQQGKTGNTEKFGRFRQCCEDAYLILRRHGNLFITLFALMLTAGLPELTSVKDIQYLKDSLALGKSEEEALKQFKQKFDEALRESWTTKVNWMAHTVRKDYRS

inhibition [1] [%]	inhibition [2] [%]	inhibition [3] [%]	inhibition [4] [%]	inhibition [5] [%]	inhibition [6] [%]	IC50 [7] [µM]	Compound
39.2	55.3	-2.9	5.4	-1.5	24		O=c1nc(N2CCOCC2)oc2c(-c3cccs3)c(OCc3ccncc3)ccc12
44	61.9	-3.3	0.3	3.8	16.6		O=c1nc(N2CCOCC2)oc2c(-c3ccsc3)c(OCc3cccnc3)ccc12
32.7	43.6	34.6	53.2	20	64.9	10.1	O=c1nc(N2CCOCC2)oc2c(-c3ccc(Cl)cc3)c(OCc3cccnc3)ccc12
-1.7	27.3		0.6		-1		O=c1nc(N2CCOCC2)oc2c(-c3cccc4c3Sc3ccccc3S4)c(OCc3ccccc3)ccc12
8.7	51.6			0.2	27.2		O=c1nc(N2CCOCC2)oc2c(-c3cc4ccccc4s3)c(OCc3ccncc3)ccc12
31.1	24	40.7	33.8	-6.4	75.9		O=c1nc(N2CCOCC2)oc2c(-c3ccccc3)c(OCCBr)ccc12
15.1	60.1	46.1	68.1	8.2	80.8	5.8	O=c1nc(N2CCOCC2)oc2c(-c3ccccc3)c(OCc3ccncc3)ccc12
17.2	46.9	-1.7	21	-2.3	34.5		O=c1nc(N2CCOCC2)oc2c(-c3cccnc3)c(OCc3ccccc3)ccc12
46.6	38.8	4.8	20.6		39.5		O=c1nc(N2CCOCC2)oc2c(-c3ccsc3)c(OCc3ccccc3)ccc12
	58.1	-7.3	0.4	-7.1	1.1		O=c1nc(N2CCOCC2)oc2c(-c3cc4ccccc4s3)c(OCc3ccccc3)ccc12
64.4	31.2		15.1		6.3		O=c1nc(N2CCOCC2)oc2c(-c3cccc4c3sc3ccccc34)c(OCc3ccccc3)ccc12

Further lines, the molecule ahead of its results:

Compound	inhibition [1] [%]	inhibition [2] [%]	inhibition [3] [%]	inhibition [4] [%]	inhibition [5] [%]	inhibition [6] [%]	IC50 [7] [µM]
COc1ccc(-c2c(OCCN3CCN(C)CC3)ccc3c(=O)nc(N4CCOCC4)oc23)cc1	18.1	11.5	40.3	44.8	6.23	73.9	5.68
CN1CCN(CCOc2ccc3c(=O)nc(N4CCOCC4)oc3c2-c2ccc(Cl)cc2)CC1	11.6	21.8	12.7	20.3	1.4	49.4	
Nc1cccc(-c2c(OCc3ccccn3)ccc3c(=O)nc(N4CCOCC4)oc23)c1	7.3	20	16.2	65.5	6.4	47.6	
O=c1nc(N2CCOCC2)oc2c(-c3cccs3)c(OCc3cccnc3)ccc12	38.1	61.8	3.3	5.3	1.7	20.7	
O=c1nc(N2CCOCC2)oc2c(-c3ccc(Cl)cc3)c(OCCBr)ccc12	31	11.3	-6.1	7.6		53.6	
O=c1nc(N2CCOCC2)oc2c(-c3ccccc3)c(OCc3ccccc3)ccc12	13.6	24	21.3	29.8	5.4	58.7	
Nc1cccc(-c2c(OCc3ccccc3)ccc3c(=O)nc(N4CCOCC4)oc23)c1	9.1	5.1	31.6	63.1	19.8	63.4	
O=c1nc(N2CCOCC2)oc2c(-c3cccc4c3oc3ccccc34)c(OCc3ccccc3)ccc12	41.5	62.9			-4.1	-2.9	
Nc1cccc(-c2c(OCc3cccnc3)ccc3c(=O)nc(N4CCOCC4)oc23)c1	9.8		18.4	28.2	-6.9	41.9	
COc1ccc(-c2c(OCc3ccccn3)ccc3c(=O)nc(N4CCOCC4)oc23)cc1	33.8	50.4	28.9	42.9	12.6	85.4	2.7
COc1ccc(-c2c(OCc3ccccc3)ccc3c(=O)nc(N4CCOCC4)oc23)cc1	40	2.8	0.6	19.8	-0.5	65.7	
COc1ccc(-c2c(OCCBr)ccc3c(=O)nc(N4CCOCC4)oc23)cc1	44.4	28	56.3	39.7	-8.6	88.8	2.7
O=c1nc(N2CCOCC2)oc2c(-c3cc4ccccc4s3)c(OCc3cccnc3)ccc12	8.9	56.4	2.6	18.1	-8.1	75.6	2.7
O=c1nc(N2CCOCC2)oc2c(-c3ccsc3)c(OCc3ccncc3)ccc12	32.8	55.3	21.4	53.6	7.7	72.2	
O=c1nc(N2CCOCC2)oc2c(-c3ccc(CO)cc3)c(OCc3ccccc3)ccc12	36	18.9	39.1	54.2		84.7	3.07
Nc1cccc(-c2c(OCc3ccncc3)ccc3c(=O)nc(N4CCOCC4)oc23)c1	10.1	43.6		-5.5	-5.5	9.7	
O=c1nc(N2CCOCC2)oc2c(-c3ccc(Cl)cc3)c(OCc3ccncc3)ccc12	21.5	56.1	28.7	56.6	26.5	63.3	9.2
O=c1nc(N2CCOCC2)oc2c(-c3cccs3)c(OCc3ccccc3)ccc12	46.1	59.9	-9.9		-3.5	9.2	
O=c1nc(N2CCOCC2)oc2c(-c3ccc(Cl)cc3)c(OCc3ccccc3)ccc12	25.7	31.4	0.2	11	9.8	27.4	
O=c1nc(N2CCOCC2)oc2c(-c3cccc4ccccc34)c(OCc3ccccc3)ccc12	4.07	51.3		4.67		9.5	
COc1ccc(-c2c(OCc3ccncc3)ccc3c(=O)nc(N4CCOCC4)oc23)cc1	33.6	33.5	36.2	53.8		96.3	2.9
